Reference: ChEMBL document CHEMBL5465560, “Selectivity Literature for EUbOPEN Chemogenomic Library” (2024)
Values belong to the compound of their own block, whether it stands above or below them.

What was measured:
[1] = molecular target: T1, Inhibitor of nuclear factor kappa-B kinase subunit alpha (Homo sapiens) (UniProt O15111); test: Selectivity interaction (ActivX KiNativ screen (ex vivo kinase selectivity in human PBMCs)) EUB0001619a CHUK; assay type: cell-based; conditions: PBMC, at 1 µM
T1 sequence (whole entry): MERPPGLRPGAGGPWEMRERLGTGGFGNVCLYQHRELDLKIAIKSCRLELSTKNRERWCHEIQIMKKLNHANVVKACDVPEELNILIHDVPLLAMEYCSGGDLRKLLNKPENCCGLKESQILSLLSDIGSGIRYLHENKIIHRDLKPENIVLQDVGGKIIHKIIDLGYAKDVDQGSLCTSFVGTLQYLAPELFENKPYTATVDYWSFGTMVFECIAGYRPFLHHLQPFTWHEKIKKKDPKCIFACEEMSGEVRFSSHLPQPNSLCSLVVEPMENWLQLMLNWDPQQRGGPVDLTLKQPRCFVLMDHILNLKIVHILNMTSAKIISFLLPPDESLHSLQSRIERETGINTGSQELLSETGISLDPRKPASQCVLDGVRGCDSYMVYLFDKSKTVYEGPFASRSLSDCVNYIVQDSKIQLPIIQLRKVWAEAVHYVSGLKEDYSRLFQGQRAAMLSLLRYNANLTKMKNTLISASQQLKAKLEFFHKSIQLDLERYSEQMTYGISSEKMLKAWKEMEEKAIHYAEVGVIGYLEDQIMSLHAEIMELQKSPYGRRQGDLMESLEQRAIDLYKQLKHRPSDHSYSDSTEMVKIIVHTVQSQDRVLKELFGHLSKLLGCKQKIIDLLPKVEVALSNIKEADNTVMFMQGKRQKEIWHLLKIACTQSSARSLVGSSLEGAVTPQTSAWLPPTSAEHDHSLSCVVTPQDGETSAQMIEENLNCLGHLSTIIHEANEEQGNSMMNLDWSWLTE

[2] = molecular target: T2, Serine/threonine-protein kinase D2 (Homo sapiens) (UniProt Q9BZL6); test: Selectivity interaction (Upstate Kinase Profiler service (Millipore)) EUB0000056c PRKD2; conditions: at 1 µM
T2 sequence (whole entry): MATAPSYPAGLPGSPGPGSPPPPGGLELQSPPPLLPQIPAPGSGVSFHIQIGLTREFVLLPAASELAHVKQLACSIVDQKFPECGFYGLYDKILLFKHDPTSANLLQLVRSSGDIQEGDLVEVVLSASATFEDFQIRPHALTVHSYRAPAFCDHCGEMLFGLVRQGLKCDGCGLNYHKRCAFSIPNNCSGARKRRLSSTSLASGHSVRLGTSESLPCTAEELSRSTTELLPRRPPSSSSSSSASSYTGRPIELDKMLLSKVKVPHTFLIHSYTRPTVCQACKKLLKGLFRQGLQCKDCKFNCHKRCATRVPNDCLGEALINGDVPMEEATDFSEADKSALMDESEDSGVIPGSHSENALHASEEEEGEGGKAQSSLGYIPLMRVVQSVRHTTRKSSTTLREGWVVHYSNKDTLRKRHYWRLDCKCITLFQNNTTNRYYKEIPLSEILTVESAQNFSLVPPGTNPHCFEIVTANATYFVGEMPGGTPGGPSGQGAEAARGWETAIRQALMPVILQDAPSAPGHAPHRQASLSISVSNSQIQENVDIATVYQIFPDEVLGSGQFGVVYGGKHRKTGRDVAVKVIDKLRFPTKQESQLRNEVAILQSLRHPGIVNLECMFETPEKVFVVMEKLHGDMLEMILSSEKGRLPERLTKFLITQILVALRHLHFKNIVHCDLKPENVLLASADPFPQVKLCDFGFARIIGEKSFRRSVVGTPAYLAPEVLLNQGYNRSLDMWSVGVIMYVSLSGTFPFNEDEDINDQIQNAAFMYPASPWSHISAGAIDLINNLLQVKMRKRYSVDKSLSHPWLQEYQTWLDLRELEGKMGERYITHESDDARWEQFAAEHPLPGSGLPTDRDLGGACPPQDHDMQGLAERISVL

[3] = molecular target: T3, Mitogen-activated protein kinase kinase kinase 5 (Homo sapiens) (UniProt Q99683); conditions: at 10 µM
T3 sequence (whole entry): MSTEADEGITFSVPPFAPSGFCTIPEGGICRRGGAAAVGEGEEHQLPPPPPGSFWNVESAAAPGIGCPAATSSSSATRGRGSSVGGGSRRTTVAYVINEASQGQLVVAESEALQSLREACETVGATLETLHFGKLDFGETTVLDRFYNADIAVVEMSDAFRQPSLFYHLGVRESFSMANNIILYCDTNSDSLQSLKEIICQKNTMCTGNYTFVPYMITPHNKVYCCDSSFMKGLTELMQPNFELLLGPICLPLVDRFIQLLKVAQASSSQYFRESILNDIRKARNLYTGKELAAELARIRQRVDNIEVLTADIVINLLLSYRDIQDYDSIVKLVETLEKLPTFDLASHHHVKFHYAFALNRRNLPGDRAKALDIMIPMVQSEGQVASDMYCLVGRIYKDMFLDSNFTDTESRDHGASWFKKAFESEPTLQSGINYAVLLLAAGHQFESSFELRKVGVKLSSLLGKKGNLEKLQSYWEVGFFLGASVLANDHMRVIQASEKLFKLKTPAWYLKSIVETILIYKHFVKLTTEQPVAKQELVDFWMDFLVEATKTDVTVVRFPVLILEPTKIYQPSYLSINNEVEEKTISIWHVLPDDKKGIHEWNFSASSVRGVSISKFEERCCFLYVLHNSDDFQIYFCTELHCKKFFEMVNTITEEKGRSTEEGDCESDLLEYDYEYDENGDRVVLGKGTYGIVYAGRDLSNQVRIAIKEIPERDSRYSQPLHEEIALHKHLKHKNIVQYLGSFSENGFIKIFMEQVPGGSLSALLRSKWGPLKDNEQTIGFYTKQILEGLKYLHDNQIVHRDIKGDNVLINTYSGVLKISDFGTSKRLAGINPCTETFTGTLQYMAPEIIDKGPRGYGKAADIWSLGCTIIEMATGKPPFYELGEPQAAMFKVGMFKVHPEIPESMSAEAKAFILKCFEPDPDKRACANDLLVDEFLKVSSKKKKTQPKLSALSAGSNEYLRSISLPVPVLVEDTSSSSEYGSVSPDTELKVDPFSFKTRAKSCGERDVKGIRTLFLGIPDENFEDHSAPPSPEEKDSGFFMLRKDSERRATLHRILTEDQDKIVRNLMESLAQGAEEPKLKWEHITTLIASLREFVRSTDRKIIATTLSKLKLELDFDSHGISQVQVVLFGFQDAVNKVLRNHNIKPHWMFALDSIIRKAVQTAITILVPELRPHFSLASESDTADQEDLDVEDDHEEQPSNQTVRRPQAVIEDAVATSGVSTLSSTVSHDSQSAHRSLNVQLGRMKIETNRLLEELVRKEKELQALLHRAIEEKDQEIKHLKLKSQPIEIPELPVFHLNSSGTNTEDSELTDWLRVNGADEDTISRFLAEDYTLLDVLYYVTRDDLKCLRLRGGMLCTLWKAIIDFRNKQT

Compound: N#Cc1cccc(-c2c[nH]c3ncnc(N4CCOCC4)c23)c1
% of inhibition [1]: -7%

% of inhibition [2]: -9%
Compound: Cc1ccc(-c2ccc3c(ccc4sc5c(c43)NC[C@@H](C)NC5=O)n2)cn1

Compound: Cc1cc([C@@H](C)Nc2ccccc2C(=O)O)c2nc(N3CCOCC3)cc(=O)n2c1 [AZD-6482]
% of control [3]: 100%
